Results from PMC12903969, “Discovery of a Novel and Potent Kir4.1 Inhibitor as a Safe and Rapid‐Onset Antidepressant Agent in Mice” (Advanced Science, 2025).
Where “and” joins values, the source holds several entries; their conditions need not be identical. Equal entries are not always repeated. Where two headings read alike, the source gives them in different places.

Key:
Kir1.1 = molecular target: T1, Kir1.1 (Homo sapiens, UniProt P48048); assay: Whole-cell patch clamp, Kir1.1; type: cell-based; settings: mean ± SEM
T1 construct: host or cells: CHO-K1
Procedure: Plasmids encoding WT human potassium channels Kir1.1, Kir2.1, Kir2.2, Kir4.1, and Kir4.2 were obtained from the Beijing Genomics Institute. All point mutations were constructed using the QuickChange II Site‐Directed Mutagenesis Kit (Stratagene) and subsequently verified by sequencing.
CHO‐K1 cells were maintained in DMEM/F12 growth medium containing 10% fetal bovine serum. Plasmids encoding the target genes (3600 ng) and enhanced green fluorescent protein (400 ng) were cotransfected into cells using Lipofectamine 2000 (Invitrogen) in accordance with the manufacturer's instructions. Cells were seeded onto poly‐d‐lysine (PDL)‐coated glass coverslips 1 h prior to electrophysiological recordings. […]
Whole‐cell patch‐clamp recordings were obtained either in transiently transfected CHO‐K1 cells or in primary cultured astrocytes at room temperature using standard patch‐clamp techniques with an Axopatch‐700B amplifier (Axon Instruments). […] Macroscopic currents generated by expressed potassium channels were recorded under the voltage‐clamp conditions with an internal pipette solution composed of (in mM): 140 KCl, 5 NaCl, 1 CaCl2, 1 MgCl2, 10 HEPES, and 10 EGTA, pH 7.2 adjusted with KOH. […] Astrocytic resting membrane potentials were recorded under current‐clamp conditions (I = 0 pA) using standard internal and external solutions, determined immediately after achieving whole‐cell mode.

Kir4.1 cKO mice = assay: NSFT in astrocyte-specific Kir4.1 cKO mice; type: in vivo; settings: 10 mg kg−1 i.p.
From the text: Male C57BL/6J mice (6–10 weeks old) and male CD‐1 mice (4–6 months old) were purchased from Shanghai Shengchang Biotechnology Co., Ltd. Kcnj10 ^flox/flox mice were generated by the Cyagen Company (Suzhou, China). The Cas9 protein, two gRNAs (gRNA‐A1: […], gRNA‐A2: […]) and a donor vector containing two loxP sequences flanking exon 2 of mouse Kcnj10 were co‐injected into fertilized eggs. The embryos were transferred to recipient female mice to obtain F0 mice. The genotype was confirmed by PCR using two pairs of primers (F1: 5’‐[…]‐3’, R1: 5’‐[…]‐3’; F2: 5’‐[…]‐3’, R2: 5’‐[…]‐3’) and sequencing. The F0 founder mice were mated with C57BL/6J mice to produce heterozygous F1 offspring. Subsequent intercrosses of F1 heterozygous mice ultimately produced F2 homozygous mice with the Kcnj10 ^flox/flox genotype. Tamoxifen‐induced conditional transgenic mice with Kir4.1 deletion in astrocytes were generated by crossing Aldh1l1‐Cre/ERT2 mice with homozygous Kcnj10 ^flox/flox mice.^[ [32] ^] […]
The mice were individually housed in new cages and deprived of food for 24 h. […] The latency to start chewing food was recorded within 5 min. Immediately thereafter, the mice were placed back in their home cage with pre‐measured food, and the amount consumed in the next 5 min was used as a baseline to account for appetite changes that might affect the outcome.

mice = assay: Novel object recognition test (NOR); type: in vivo; settings: chronic 10 mg kg−1 per day
Procedure: This test was designed to assess memory in rodents. The mice were individually exposed to familiar and novel objects. The test consists of three phases: habituation, training, and retention. During habituation, each animal freely traversed an empty cubic arena (≈40 cm per side) for 5 min, then was returned to its home cage. In the subsequent training phase, two identical rectangular objects were fixed 10 cm from opposite walls, and the mouse, introduced with its snout directed toward the center of the distal wall, was allowed to investigate the objects for 5 min. One hour later, in the retention phase, one of the familiar objects was exchanged for a geometrically distinct but comparably sized novel object, and exploration was recorded for 5 min. The positions of familiar and novel objects were systematically randomized across trials to prevent spatial bias. Object exploration was quantified as the duration of direct nose/mouth orientation toward objects within ≤ 2 cm, excluding instances of turning away or sitting on objects. Recognition memory was assessed using the discrimination ratio, calculated as N/(N + F) × 100%, where N represents the exploration time of the novel object and F denotes the exploration time of the familiar object.

[1] = Brain penetration (plasma and brain concentration, LC-MS/MS); type: in vivo, mice; settings: for Kp at 1 h / concentration at 1 h: male, C57BL/6J, mouse; for Kp at 1 h: brain and plasma, read-out: Brain/Plasma concentration ratio; for concentration at 1 h: 1 h post-dosing
Procedure: Male C57BL/6J mice were used for both blood–brain penetration and plasma/tissue distribution studies, with mice assigned to three groups: 10 mg kg^−1 JX3212 (n = 3), 20 mg kg^−1 JX3212 (n = 3) for blood–brain penetration, and 10 mg kg^−1 JX3212 for plasma/tissue distribution (all administered via intraperitoneal injection), where mice in the blood–brain penetration groups were fasted for 12 h prior to drug administration and 2 h post‐administration; 1 h after drug administration, 0.2 mL of blood was collected from the retro‐orbital/orbital venous plexus into 1.5 mL heparinized tubes, centrifuged at 11 000 rpm for 5 min to obtain plasma (stored at −80 °C for blood–brain penetration groups), while whole brains were excised for blood–brain penetration groups and whole brains plus kidneys (rinsed with physiological saline, blotted dry on filter paper, and accurately weighed) for the plasma/tissue distribution group; plasma samples (20 µL) were mixed with 20 µL internal standard solution and 300 µL acetonitrile for protein precipitation, vortexed for 15 min, centrifuged at 3700 rpm for 15 min at 4 °C, and the supernatant was collected, whereas brain and kidney samples were homogenized in acetonitrile at 10× tissue weight (8000 rpm, 3 × 30 s), sonicated for 5 min, and processed identically to plasma samples; the concentrations of JX3212 in plasma and tissues were quantified by liquid chromatography–tandem mass spectrometry (LC−MS/MS), with lower limits of quantification set to 50 ng mL^−1 for plasma and 50 ng g^−1 for brain tissue.

[2] = mice, 10 mg/kg i.p., 1 h, 10 mg/kg
[3] = mice, 20 mg/kg i.p., 1 h, 20 mg/kg

T1 sequence (P48048 whole entry): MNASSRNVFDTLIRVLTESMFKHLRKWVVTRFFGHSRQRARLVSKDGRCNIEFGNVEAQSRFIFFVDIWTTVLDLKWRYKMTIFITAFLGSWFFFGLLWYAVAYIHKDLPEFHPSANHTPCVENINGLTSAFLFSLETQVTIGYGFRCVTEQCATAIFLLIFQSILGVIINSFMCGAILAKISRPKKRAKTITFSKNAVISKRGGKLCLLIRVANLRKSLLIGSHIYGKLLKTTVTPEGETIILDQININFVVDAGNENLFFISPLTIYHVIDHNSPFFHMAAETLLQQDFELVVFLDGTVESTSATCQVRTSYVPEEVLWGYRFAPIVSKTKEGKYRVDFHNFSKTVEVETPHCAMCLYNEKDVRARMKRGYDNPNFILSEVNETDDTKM

## c1ccc2c(c1)oc1ccc(Nc3ccnc(NCCCN4CCOCC4)n3)cc12 [JX3212, N^4-(dibenzo[b,d]furan-2-yl)-N^2-(3-morpholinopropyl)pyrimidine-2,4-diamine]
Kir1.1
  inhibition at 3 µM: 17.8 ± 8.26%
Kir4.1 cKO mice
  NSFT latency in Kir4.1 cKO mice vs vehicle (in words): comparable latencies
mice
  NOR discrimination ratio vs vehicle (in words): showed no effects
[1]; ip, 10 mg/kg, mice, 10 mg/kg i.p., 1 h
  Kp at 1 h: > 10
[1]; ip, 20 mg/kg, mice, 20 mg/kg i.p., 1 h
  Kp at 1 h: 12.9 ± 1
[1]; brain, intraperitoneal, 10 mg/kg, converted from 2533.3 ng/mL, read-out: brain concentration expressed as molar
  concentration at 1 h: ~6.3 µM
[1]; brain, ip, 10 mg/kg, mice, 10 mg/kg i.p., read-out: Brain Calculated Concentration
  concentration at 1 h: 2530 ± 745 ng/mL
[1]; brain, ip, 20 mg/kg, mice, 20 mg/kg i.p., read-out: Brain Calculated Concentration
  concentration at 1 h: 6690 ± 816 ng/mL
[1]; plasma, ip, 10 mg/kg, mice, 10 mg/kg i.p., mean ± SD, read-out: Plasma Calculated Concentration
  concentration at 1 h: 234 ± 14.4 ng/mL
[1]; plasma, ip, 20 mg/kg, mice, 20 mg/kg i.p., read-out: Plasma Calculated Concentration
  concentration at 1 h: 521 ± 63.3 ng/mL
[1]; [2]
  Brain/Plasma concentration ratio: 10.72
  logBB (blood–brain partitioning coefficient): 1.02 ± 0.10 and > 1 and 1.02
[1]; [3]
  Brain/Plasma concentration ratio: > 10
  logBB: 1.11 ± 0.03 and > 1
